From PMC3770646, “Isolation of an Orally Active Insecticidal Toxin from the Venom of an Australian Tarantula” (PLoS ONE, 2013)
Read-outs that look alike come from different tables or passages of the source. Where a SMILES comes first, the peptide text is derived from it. Bridges are numbered along the chain shown (N, C = ends).

How the values were obtained:
H. armigera = conditions: ref [61], cited from earlier work
From the text: Table 2 Comparison of OAIP-1 with pyrethroid insecticides. | column: Oral LD50 (nmol/g)

Helicoverpa armigera = assay: Assay of synergism of imidacloprid and sOAIP-1 in agar diet; type: in vivo; conditions: H. armigera fed 100 pmol of the single insecticide in agar diet, mean ±SEM of three replicates of 10
Method: (§1) For feeding assays, an agar-based insect diet was created based on literature information (Table S1). Instead of using a separate preparation as a vitamin supplement, the commercially available children's vitamin Pentavite (Bayer, Leverkusen, Germany) was added after the agar had cooled below 65°C. Mealworms were fed 100 µL of the agar diet, with or without 20 µL toxin (or water for untreated controls). For the choice test, the same size Petri dish was divided in half and 50 µL of either toxin-treated or untreated agar was pipetted onto each half and mortality was recorded after 48 h. Cotton bollworms (Helicoverpa armigera, Lepidoptera: Noctuidae) were fed 5 µL toxin (or water for untreated controls) in 20 µL of agar diet, and maintained in 12-well tissue culture dishes. For assays of synergism using 100 pmol imidacloprid (Sigma-Aldrich) and 100 pmol sOAIP-1, 20 µL of one toxin or 10 µL of each toxin was incorporated into the agar diet for H. armigera. After all the treated diet was consumed, untreated diet was supplied ad libitum.
In all experiments, the mortality of untreated insects was used to correct the data for mortality due to injection of toxin or incorporation in the diet. […]

[1] = In vitro stability in undiluted insect hemolymph; type: in vitro ADME, Helicoverpa armigera; conditions: undiluted H. armigera hemolymph, 30 µg peptide in 200 µL, ambient temperature (23°C), dark
Method: Fourth-instar H. armigera larvae were decapitated and the gut was removed using forceps. The carcasses were spun in a benchtop centrifuge (14,000 g for 10 min) to separate the hemolymph from exoskeleton. For each time point, 200 µL of undiluted hemolymph was mixed with 30 µg of sOAIP-1. The hemolymph/sOAIP-1 solution was maintained in the dark at room temperature, and immediately before RP-HPLC analysis the hemolymph/sOAIP-1 solution was again spun in a benchtop centrifuge (14,000 g for 10 min). After centrifugation, 30 µg of a control peptide, ω-HXTX-Hv1a, was added to aid quantification and the sample was filtered using a […] filter. The toxins were separated by RP-HPLC using a linear acetonitrile gradient (5–40% over 40 min), and the identity of each toxin was confirmed using mass spectrometry. The percentage of intact sOAIP-1 present at each time point was determined by comparing the area of the sOAIP-1 peak to that at zero time, both measured relative to the area of the ω-HXTX-Hv1a peak.

[2] = tested on: mealworms (larval Tenebrio molitor); assay: Feeding assay, toxin in agar diet fed to mealworms; type: in vivo; conditions: corrected for control mortality, three replicates of 10
Method: Chicken feed was provided ad libitum for mealworm food. A Whatman filter paper saturated with distilled water was used to maintain humidity in all mealworm experiments except feeding assays, which used the synthetic orally active insecticidal peptide 1 (sOAIP-1) in the agar diet described below. The agar diet allowed a homogenous mixture of toxin and diet to be prepared so preferential feeding on untreated diet would not be possible. All insects were maintained at 24.5°C in the dark at ambient humidity in sterile Petri dishes.
as §1, with “For assays of synergism using 100 pmol imidacloprid (Sigma-Aldrich) and 100 pmol sOAIP-1, 20 µL of one toxin or 10 µL of each toxin was incorporated into the agar diet for H. armigera. After all the treated diet was consumed, untreated diet was supplied ad libitum.” left out

[3] = tested on: mealworms (larval Tenebrio molitor); assay: Feeding choice test, toxin-treated and untreated agar; type: in vivo
Method: as §1
In addition to toxicity assays, a choice test was conducted to determine whether sOAIP-1 is repellent. […] Conversely, if the toxin-treated agar was preferentially consumed, it might indicate that sOAIP-1 acts as an attractant.

[4] = tested on: mealworms (larval Tenebrio molitor); assay: Injection of toxin into mealworms; type: in vivo; conditions: injection into metathoracic pleurite, corrected for control mortality, three replicates of 10
Method: Termites were fed a 20% α-cellulose matrix (Sigma-Aldrich, St. Louis, MO) mixed with water; the toxin was dissolved in water, and 20 µL was added to the cellulose matrix to a final concentration of 350 nmol/g, and then pipetted into Petri dishes. After the cellulose matrix had dried (to prevent termites from drowning in wet bait), nine worker termites and one soldier termite were added to each dish; each toxin dose was replicated three times. As a comparison, toxins were also injected into mealworms at a concentration of 350 nmol/g in three replicates of 10 insects.
Mealworms were purchased from Pisces Enterprises (Kenmore, QLD, Australia). Insects between 3rd and 4th instar (∼180 mg/individual) were used. For each mealworm, 2.6 µL of toxin diluted in ultrapure water was injected into the metathoracic pleurite. Injections were performed using a 29.5 gauge insulin syringe (B–D Ultra-Fine, Terumo Medical Corporation, Elkton, MD). Three replicates of 10 insects were used for each toxin concentration, and the same number of control insects were injected with ultrapure water and maintained under the same conditions.
Chicken feed was provided ad libitum for mealworm food. […] All insects were maintained at 24.5°C in the dark at ambient humidity in sterile Petri dishes. […]

[5] = pyrethroid-resistant strain BK99R9 (R)

SMILES	Oral LD50 (H. armigera; [5]) [nmol/g]	Oral LD50 (H. armigera; susceptible strain BK77 (S)) [nmol/g]	mortality at 48 h (Helicoverpa armigera) [%]	other results
Cc1c(COC(=O)[C@@H]2[C@H](/C=C(\Cl)C(F)(F)F)C2(C)C)cccc1-c1ccccc1 (racemic) [Bifenthrin]	20.6	1.1		
CC1(C)[C@H](C(=O)O[C@H](C#N)c2cccc(Oc3ccccc3)c2)[C@@H]1C=C(Br)Br [Deltamethrin]	0.46	0.35		
CCOc1ccc(C(C)(C)COCc2cccc(Oc3ccccc3)c2)cc1 [Etofenprox]	55.9	0.31		
CC(C)C(C(=O)OC(C#N)c1cccc(Oc2ccccc2)c1)c1ccc(Cl)cc1 (centres unmarked) [Fenvalerate]	41.9	7.8		
O=[N+]([O-])NC1=NCCN1Cc1ccc(Cl)nc1 [imidacloprid]			31±3	
CC[C@H](C)[C@@H]1NC(=O)[C@@H]2CSSC[C@H](NC(=O)[C@@H](N)CC(=O)O)C(=O)NCC(=O)N[C@@H](Cc3c[nH]cn3)C(=O)N[C@@H](CC(C)C)C(=O)N[C@@H](Cc3c[nH]cn3)C(=O)N[C@@H](CC(=O)O)C(=O)N3CCC[C@H]3C(=O)N[C@H]3CSSC[C@H](NC(=O)[C@H](CCC(N)=O)NC(=O)[C@H](CC(C)C)NC(=O)CNC1=O)C(=O)N[C@@H](CCCNC(=N)N)C(=O)N[C@@H](Cc1ccc(O)cc1)C(=O)NCC(=O)N[C@@H](CCCCN)C(=O)N[C@H](C(=O)N[C@@H](CC(C)C)C(=O)N[C@H](C(=O)N[C@@H](CCCNC(=N)N)C(=O)O)C(C)C)CSSC[C@H](NC(=O)[C@H]([C@@H](C)O)NC(=O)[C@H](CCCNC(=N)N)NC(=O)[C@H](Cc1c[nH]cn1)NC(=O)CNC(=O)[C@@H]1CCCN1C(=O)[C@H](CCCNC(=N)N)NC(=O)[C@H](CC(=O)O)NC(=O)[C@H](CC(N)=O)NC(=O)[C@@H]1CCCN1C3=O)C(=O)N2 [sOAIP-1] (H-DCGHLHDPCPNDRPGHRTCCIGLQCRYGKCLVR-OH; disulfide 2-20, 9-25, 19-30; N-terminus and C-terminus assumed)			4±3	remaining at 24 h ([1]; cerebrospinal or other body fluid, 24 h, RP-HPLC peak area relative to ω-HXTX-Hv1a, read-out: remained intact): ~40%; metabolised at 72 h ([1]; cerebrospinal or other body fluid, 72 h, RP-HPLC peak area relative to ω-HXTX-Hv1a, read-out: peptide degraded): 90%; remained intact ([1]; one-week incubation, RP-HPLC): none remained intact; LD50, oral administration [2]: 170.5 ± 0.2 nmol/g; mortality at 48 h in choice test ([3]; mealworms offered toxin-treated and untreated agar, 1 pmol toxin, three replicates of 10): no mortality; repellent or attractant effect ([3]; mealworms, choice test compared with non-choice test): neither a repellent that repels insects nor an attractant; LD50, injected toxin [4]: 1.84 ± 0.8 nmol/g
